Experimental data as given in patent US20240076347A1, “METHODS FOR PREVENTING FUNGAL INFECTIONS” (Cidara Therapeutics, Inc., priority 2016, published 2024).
“And” between values parts separate entries of the source, which are not always exact repeats. Identical values can stand only once. Like-named read-outs stand apart in the source and are kept apart here. Numbered stars: 1 amine (or outer) side, 2 acyl side, 3 side chain; on linkers, the order of the positions; unused ones are H or OH. Bridge positions count the residues as written; N and C are the ends. Square brackets hold non-standard residues; d marks the D form. Peptide text beside a SMILES is read from it. * marks the point of attachment. ξ: configuration not given here. Orn(4R-OH,5R-OCH2CH2NMe3+) = C[N+](C)(C)CCO[C@@H](N[*:3])[C@H](O)C[C@H](N[*:1])C(=O)[*:2]; pTerphenylCO(4''-OnC5H11) = CCCCCOc1ccc(-c2ccc(-c3ccc(C(=O)*)cc3)cc2)cc1; hTyr(3S-OH,4S-OH) = N[C@H](C(=O)O)[C@H](O)[C@@H](O)c1ccc(O)cc1; X1 = C[C@H]1CN([*:1])C(C(=O)[*:2])C1O; Hyp = O=C(O)[C@@H]1C[C@@H](O)CN1; ξT = CC(O)C(N)C(=O)O

Experiments:
[1] = Plasma and lung epithelial lining fluid (ELF) pharmacokinetics in ICR mice; assay type: in vivo; details: 20 mg/kg IP; for Kp: ip, 20 mg/kg
Procedure: At pre-dose, 1, 3, 6, 12, 24, 48, and 72 hours post-dose, 3 mice/timepoint were anesthetized/euthanized for blood collection (plasma) and bronchoalveolar lavage fluid (BALF) collection with 2×0.5 mL flushes of saline. Urea levels for plasma/BALF normalization for the volume of lung epithelial lining fluid (ELF) calculation were quantified using a commercially-available spectrophotometry-based assay. CD101 concentrations in plasma/BALF samples were measured by LC with electrospray ionization tandem mass spectrometric (LC-MS/MS) detection.
Urea for plasma/BALF normalization for ELF volume were quantified using spectrophotometry. CD101 concentrations in plasma/BALF samples were measured by LC-MS/MS. Total plasma concentrations were corrected for protein binding (99.2%).

[2] = tested on: C. albicans strain 529L; assay: Rat model of vulvovaginal candidiasis, vaginal lavage and tissue burden; assay type: in vivo, Candida albicans; details: for reduction in terminal vaginal tissue burden: not statistically lower than vehicle
Procedure: Animal Strain. Wistar rats were supplied by Harlan Laboratories UK and were specific pathogen free. Rats weighed […] at the time of surgery. Ovariectomies were performed. Rats were allowed 4-7 days recovery before transportation to the facility where the experiment was to be performed. Following arrival, rats were allowed at least 4 days acclimatization before start of the experiment. Rats weighed 100-120 g at the time of ovariectomy and were about 300 g at start of the experiment.
Pre-conditioning. Female Wistar rats underwent ovariectomy at least 10 days prior to the study commencing. They were further pre-conditioned by treatment with 5 mg/kg 17-β-estradiol administered subcutaneously (SC) every other day on Days −7, −5, −3 and −1 prior to infection with C. albicans strain 529. Estradiol treatment continued every other day throughout the study to 7 days post-infection.
Yeast Isolate. Candida albicans strain 529L was used in this chronic rat vaginal infection model.
Infection. Yeast strains were inoculated aerobically onto Sabouraud dextrose agar media (SAB) containing 0.05 mg/mL chloramphenicol and incubated at 30° C. for 48-72 h. 18-24 h prior to infection, Yeast Peptone Dextrose (YPD) broths were inoculated with 2-3 isolated colonies from agar plates and incubated overnight (37° C. on an orbital shaker). Broths containing C. albicans strain 529L were washed 3 times with sterile phosphate buffered saline (PBS) before dilution to the correct inoculum for infection. Cell counts were determined using a haemocytometer and confirmed by quantitative culture on Sabouraud dextrose agar.
Rats were infected with 0.1 mL by intravaginal administration under inhaled isoflurane anaesthesia using about 9.8×10^5 CFU/mL (9.8×10^4 CFU/Rat) C. albicans strain 529L
Treatment. […] The fluconazole treatment also started at 24 h post infection but was administered by the PO route at the dose volume and frequency shown in Table 7. The study design is further outlined in FIG. 19.
Reduction in weight and general loss of condition due to estradiol treatment are also typical in this rat model. Colonization with C. albicans was determined by quantitative culture of daily vaginal lavage samples. Rats were euthanized 9 days post infection and C. albicans determined by quantitative culture of vaginal tissue (including uterine horns).
Lavage samples were obtained on Days 1 (pre-treatment), 2, 3, 5, 7, and 9 days post infection by flushing rat vaginas 4 times with 0.1 mL pre-warmed sterile PBS. Following euthanasia, vaginal tissue including uterine horns was removed prior to weighing. Tissues were homogenized in 2 mL sterile PBS using a bead-beater. Vaginal wash and tissue homogenates were diluted appropriately then quantitatively cultured on to Sabouraud dextrose agar containing 0.05 mg/mL chloramphenicol and incubated at 37° C. for up to 72 h before being counted.
Statistical analysis. Data were analyzed using StatsDirect software (version 2.7.8) using the non-parametric Kruskal-Wallis test and if this was statistically significant all pairwise comparisons were analyzed (Conover-Inman).

[3] = lavage Day 1 post treatment (Day 2 post infection), 5 mg/kg SC dosed once
[4] = lavage Day 1 post treatment (Day 2 post infection), 5 mg/kg SC dosed twice
[5] = lavage Day 1 post treatment (Day 2 post infection), 10 mg/kg SC dosed once
[6] = lavage Day 2 post treatment (Day 3 post infection), 5 mg/kg SC dosed once
[7] = lavage Day 2 post treatment (Day 3 post infection), 5 mg/kg SC dosed twice
[8] = lavage Day 2 post treatment (Day 3 post infection), 10 mg/kg SC dosed once
[9] = lavage Day 4 post treatment (Day 5 post infection), 5 mg/kg SC dosed once
[10] = lavage Day 4 post treatment (Day 5 post infection), 5 mg/kg SC dosed twice
[11] = lavage Day 4 post treatment (Day 5 post infection), 10 mg/kg SC dosed once
[12] = lavage Day 5 post infection, 10 mg/kg SC once
[13] = lavage Day 6 post treatment (Day 7 post infection), 5 mg/kg SC dosed once
[14] = lavage Day 6 post treatment (Day 7 post infection), 5 mg/kg SC dosed twice
[15] = lavage Day 6 post treatment (Day 7 post infection), 10 mg/kg SC dosed once
[16] = lavage Day 8 post treatment (Day 9 post infection), 5 mg/kg SC dosed once
[17] = lavage Day 8 post treatment (Day 9 post infection), 5 mg/kg SC dosed twice
[18] = lavage Day 8 post treatment (Day 9 post infection), 10 mg/kg SC dosed once
[19] = terminal vaginal tissue (vagina, uterus, uterine horns) Day +9 post infection, 5 mg/kg SC dosed once
[20] = terminal vaginal tissue Day +9 post infection, 5 mg/kg SC dosed twice
[21] = terminal vaginal tissue Day +9 post infection, 10 mg/kg SC dosed once
[22] = vaginal lavage Day 1 post infection, pre-treatment, 5 mg/kg SC dosed once group
[23] = vaginal lavage Day 1 post infection, pre-treatment, 5 mg/kg SC dosed twice group
[24] = vaginal lavage Day 1 post infection, pre-treatment, 10 mg/kg SC dosed once group

CCCCCOc1ccc(-c2ccc(-c3ccc(C(=O)N[C@H]4C[C@@H](O)[C@@H](OCC[N+](C)(C)C)NC(=O)C5C(O)[C@@H](C)CN5C(=O)[C@H]([C@@H](C)O)NC(=O)[C@H]([C@H](O)[C@@H](O)c5ccc(O)cc5)NC(=O)[C@@H]5C[C@@H](O)CN5C(=O)C(C(C)O)NC4=O)cc3)cc2)cc1 (stereo partly drawn) [CD101] ({pTerphenylCO(4''-OnC5H11)}-[Orn(4R-OH,5R-OCH2CH2NMe3+)][ξT][Hyp][hTyr(3S-OH,4S-OH)]T[X1]; lactam 1-C)
mean maximum ELF concentration [1]: 15.1 µg/mL | mean maximum plasma concentration [1]: 30.1 µg/mL | time of maximum ELF concentration [1]: 6 h and 4 h | time of maximum plasma concentration ([1]; first collection timepoint): 1 h | concentration at 72 h ([1]; ICR, mouse, lung epithelial lining fluid (ELF), intraperitoneal, at 72 h): 4000 ng/mL | Kp ([1]; ICR, mouse, lung epithelial lining fluid (ELF), free-drug (protein binding 99.2%), read-out: ELF/Plasma AUC ratio): 100 | Kp ([1]; ICR, mouse, lung epithelial lining fluid (ELF), read-out: AUC exposure ratios of ELF/plasma): 0.8 to 0.95 | Kp ([1]; ICR, mouse, lung epithelial lining fluid (ELF), total-drug, read-out: ELF/Plasma AUC ratio): 0.8 | half-life ([1]; ICR, mouse, lung epithelial lining fluid (ELF), read-out: ELF half-life (converted)): 31.9 h | AUC(0-t) ([1]; ICR, mouse, lung epithelial lining fluid (ELF), read-out: mean ELF AUC0-72): 606 µg·h/mL | AUC(0-inf) ([1]; ICR, mouse, lung epithelial lining fluid (ELF), read-out: mean ELF AUCinf): 802 µg·h/mL | AUC(0-t) ([1]; ICR, mouse, plasma, read-out: mean plasma AUC0-72): 762 µg·h/mL | AUC(0-inf) ([1]; ICR, mouse, plasma, read-out: mean plasma AUCinf): 848 µg·h/mL | half-life ([1]; ICR, mouse, plasma, read-out: plasma half-life (converted)): 21.1 h | reduction in terminal vaginal tissue burden ([2]; 5 mg/kg SC once, Day 9): about 0.4 Log10 CFU/g | reduction in terminal vaginal tissue burden ([2]; 5 mg/kg SC twice, Day 9): about 0.9 Log10 CFU/g | rats with tissue burdens below the levels of detection ([2]; 10 mg/kg SC once, Day 9): 5/6 | CFU ([2]; 10 mg/kg SC once, all but one rat, Day 9): undetectable CFU | Group Geometric mean [2, 3]: 3.34 × 10^2 CFU/mL | Log Group Geometric mean [2, 3]: 2.52 CFU/mL | Log reduction from vehicle control [2, 3]: 1.17 CFU/mL | Group Geometric mean [2, 4]: 2.56 × 10^2 CFU/mL | Log Group Geometric mean [2, 4]: 2.41 CFU/mL | Log reduction from vehicle control [2, 4]: 1.29 CFU/mL | Group Geometric mean [2, 5]: 2.48 × 10^2 CFU/mL | Log Group Geometric mean [2, 5]: 2.39 CFU/mL | Log reduction from vehicle control [2, 5]: 1.30 CFU/mL | burden vs vehicle, statistics ([2]; lavage Day 2 post infection): neither the CD101 nor fluconazole burden was statistically different from the vehicle burden | reduction in burden ([2]; lavage Day 2 post infection, all doses of CD101): about 1.3 Log10 CFU/mL | Group Geometric mean [2, 6]: 1.21 × 10^2 CFU/mL | Log Group Geometric mean [2, 6]: 2.08 CFU/mL | Log reduction from vehicle control [2, 6]: 1.49 CFU/mL | Group Geometric mean [2, 7]: 1.95 × 10^2 CFU/mL | Log Group Geometric mean [2, 7]: 2.29 CFU/mL | Log reduction from vehicle control [2, 7]: 1.28 CFU/mL | Group Geometric mean [2, 8]: 23.2 CFU/mL | Log Group Geometric mean [2, 8]: 1.37 CFU/mL | Log reduction from vehicle control [2, 8]: 2.21 CFU/mL | burden vs vehicle, statistics ([2]; lavage Day 3 post infection, all treatments): statistically different from the vehicle treatments | Group Geometric mean [2, 9]: 1.70 × 10^3 CFU/mL | Log Group Geometric mean [2, 9]: 3.23 CFU/mL | Log reduction from vehicle control [2, 9]: 0.99 CFU/mL | Group Geometric mean [2, 10]: 1.73 × 10^3 CFU/mL | Log Group Geometric mean [2, 10]: 3.24 CFU/mL | Log reduction from vehicle control [2, 10]: 0.98 CFU/mL | Group Geometric mean [2, 11]: 1.73 CFU/mL | Log Group Geometric mean [2, 11]: 0.24 CFU/mL | Log reduction from vehicle control [2, 11]: 3.98 CFU/mL | burden reduced to ([2]; lavage Day 5 post infection, 5 mg/kg SC once or twice, not statistically different from vehicle): about 1 Log10 CFU/m | burden reduced to [2, 12]: about 4 Logo CFU/mL | rats having burden below the limit of detection [2, 12]: 5/6 | Group Geometric mean [2, 13]: 4.56 × 10^3 CFU/mL | Log Group Geometric mean [2, 13]: 3.66 CFU/mL | Log reduction from vehicle control [2, 13]: 0.52 CFU/mL | Group Geometric mean [2, 14]: 6.47 × 10^2 CFU/mL | Log Group Geometric mean [2, 14]: 2.81 CFU/mL | Log reduction from vehicle control [2, 14]: 1.37 CFU/mL | Group Geometric mean [2, 15]: 2.59 CFU/mL | Log Group Geometric mean [2, 15]: 0.41 CFU/mL | Log reduction from vehicle control [2, 15]: 3.77 CFU/mL | Group Geometric mean [2, 16]: 4.58 × 10^3 CFU/mL | Log Group Geometric mean [2, 16]: 3.66 CFU/mL | Log reduction from vehicle control [2, 16]: 0.64 CFU/mL | Group Geometric mean [2, 17]: 1.28 × 10^3 CFU/mL | Log Group Geometric mean [2, 17]: 3.11 CFU/mL | Log reduction from vehicle control [2, 17]: 1.19 CFU/mL | Group Geometric mean [2, 18]: 2.75 CFU/mL | Log Group Geometric mean [2, 18]: 0.44 CFU/mL | Log reduction from vehicle control [2, 18]: 3.86 CFU/mL | Group Geometric mean [2, 19]: 1.37 × 10^5 CFU/g | Log Group Geometric mean [2, 19]: 5.14 CFU/g | Log reduction from vehicle control [2, 19]: 0.36 CFU/g | Group Geometric mean [2, 20]: 4.00 × 10^4 CFU/g | Log Group Geometric mean [2, 20]: 4.60 CFU/g | Log reduction from vehicle control [2, 20]: 0.89 CFU/g | Group Geometric mean [2, 21]: 5.52 CFU/g | Log Group Geometric mean [2, 21]: 0.74 CFU/g | Log reduction from vehicle control [2, 21]: 4.75 CFU/g | Group Geometric mean [2, 22]: 9.11 × 10^2 CFU/mL | Log Group Geometric mean [2, 22]: 2.96 CFU/mL | Log reduction from vehicle control [2, 22]: −0.52 CFU/mL | Group Geometric mean [2, 23]: 1.83 × 10^3 CFU/mL | Log Group Geometric mean [2, 23]: 3.26 CFU/mL | Log reduction from vehicle control [2, 23]: −0.83 CFU/mL | Group Geometric mean [2, 24]: 3.68 × 10^2 CFU/mL | Log Group Geometric mean [2, 24]: 2.57 CFU/mL | Log reduction from vehicle control [2, 24]: −0.13 CFU/mL
